From patent US9289411B2, “Anti-HCV agent” (NATIONAL UNIVERSITY CORPORATION OKAYAMA UNIVERSITY, priority 2011, dated 2016)
Like-named read-outs stand apart in the source and are kept apart here.

Tests used:
[1] = tested on: HCV-RNA replication in OR6, 1B-4R, AH1R, ORL8, ORL11, 1B-4RL and KAH5RL cells; assay: Anti-HCV activity summarized over cells derived from various HCV strains (reporter assays); assay type: cell-based, HCV genotype 1b; settings: Hepatitis C virus, seven full-length HCV-RNA-replicating cell lines, read-out: EC50 values, range over all cells
Excerpt: (§3) Assay systems using OR6 cells (HCV-O strain), 1B-4R cells (HCV-1B-4 strain), and AH1R cells (HCV-AH1R strain) as HuH-7 cell-derived full-length HCV-RNA-replicating cells, and ORL8 cells (HCV-O strain), ORL11 cells (HCV-O strain), 1B-4RL cells (HCV-1B-4 strain), and KAH5RL cells (HCV-KAH5 strain) as Li23 cell-derived full-length HCV-RNA-replicating cells were used for the quantitative analysis of anti-HCV activity and evaluation of a cytotoxic effect in the present invention.
(§4) As necessary, an increase or decrease in expression level of an HCV protein (core protein) was examined by a Western blot method.

[2] = tested on: HCV-RNA replication in AH1R cells (HCV-AH1 strain, HuH-7-derived); assay: microbe, parasite or virus in culture; assay type: cell-based, HCV genotype 1b; settings: for EC50: Hepatitis C virus, 72 hours, renilla luciferase activity
Excerpt: (§5) Assay systems using OR6 cells (HCV-O strain), 1B-4R cells (HCV-1B-4 strain), and AH1R cells (HCV-AH1R strain) as HuH-7 cell-derived full-length HCV-RNA-replicating cells, and ORL8 cells (HCV-O strain), ORL11 cells (HCV-O strain), 1B-4RL cells (HCV-1B-4 strain), and KAH5RL cells (HCV-KAH5 strain) as Li23 cell-derived full-length HCV-RNA-replicating cells were used for the quantitative analysis of anti-HCV activity and evaluation of a cytotoxic effect in the present invention. […] In addition, all the HCV strains belong to genotype 1b.
as §4
(§6) In the measurement of the renilla luciferase activity and the measurement by the WST-1 method, experiments were performed in three wells independent of each other, and their means and standard deviation were calculated.
N-89 was added so as to achieve concentrations of 500 nM, a 2-fold dilution series from 500 nM (250, 125, 63, 31, 16, and 8 nM), and 0. The luciferase activities were measured 72 hours after the culture.
N-251 was added so as to achieve concentrations of 2 μM, a 2-fold dilution series from 2 μM (1, 0.5, 0.25, 0.13, 0.06, and 0.03 μM), and 0. The luciferase activities were measured 72 hours after the culture.

[3] = Cytotoxic effect, WST-1 cell proliferation assay in KAH5RL cells; assay type: cell-based, human; settings: human; KAH5RL cells, 72 hours, WST-1
Excerpt: as §3, §6
(§7) The concentrations of N-89 and N-251 were the same as the concentrations used for the measurement of the luciferase activity, and the WST-1 cell proliferation assay was performed 72 hours after the addition.

KAH5RL cells = assay: as above; assay type: cell-based, human; settings: KAH5RL vs ORL8
Excerpt: as §3, §6, §7

1B-4RL cells = assay: Cytotoxic effect, WST-1 cell proliferation assay in 1B-4RL cells; assay type: cell-based, human; settings: 72 hours
Excerpt: as §5, §6
N-89 was added at the concentrations used for the measurement of the luciferase activity, and N-251 was added so as to achieve concentrations of 2 μM, a 2-fold dilution series from 2 μM (1, 0.5, 0.25, 0.13, 0.06, and 0.03 μM), and 0. The WST-1 cell proliferation assay was performed 72 hours after the addition.

renilla luciferase = assay: Influence on renilla luciferase activity in lysate of OR6 cells; assay type: biochemical; settings: OR6 cell lysate, concentrations of up to 20 μM
Procedure: Thus, N-89 or N-251 was added (5 μL) to a lysate (10 μL) of the ORL8 cells (1×10^5 cells, medium for Li23 cell line) so as to achieve final concentrations of 0, 5, 10, and 20 μM, and 50 μL of a substrate were further added thereto. Then, the luciferase activity was measured.
Also in OR6 cells (medium for HuH-7 cell line), the renilla luciferase activity was measured by the same technique as in Example 6.
An actual luciferase activity value (RL activity value) at 100% on the ordinate axis was 1.1×10^6 in both of N-89 and N-251.

[4] = tested on: HCV RNA in OL8 cells (HCV-O strain-derived full-length HCV-genome-replicating cells); assay: Production of cured cells from OL8 cells subcultured for 3 years; assay type: cell-based; settings: treated similarly with N-89
Procedure: (§1) 4×10^5 ORL8 cells were plated onto a 10-cm plate (10 mL of medium in the absence of G418) (Day 1), and N-89 was added so as to achieve a final concentration of 1 μM the next day (Day 2). After 3 days (Day 5), the cells were diluted 10-fold, and N-89 was added again the next day. This operation was repeated an additional four times (N-89 was added six times in total: Days 2, 6, 10, 14, 18, and 22). At the time of the dilution of the cells (Day 13), which was performed 3 days after the third addition of N-89, the cells were divided into two plates with medium in the presence of G418 (neomycin) (0.3 mg/mL) and medium in the absence of G418. Then, N-89 was added three times, a plurality of plates were prepared at the time of the final dilution of the cells, and finally, one of the plates for each of the media was subjected to CBB staining (Day 26).
(§2) Further, cells obtained by subculturing HCV-O strain-derived full-length HCV-genome-replicating cells (OL8 cells and OL11 cells) (Kato et al., Virus Res. 146:41-50, 2009) for 3 years (the cells had acquired the status of genetic diversity (called quasispecies) owing to various mutations in an HCV genome caused by the sustained replication of the HCV genome) were used and similarly treated with N-89.

[5] = tested on: HCV-RNA replication in ORL8 cells; assay: Influence of oxidizing agents KNO3 and NaClO4 on anti-HCV activity in ORL8 cells; assay type: cell-based, HCV genotype 1b; settings: N-89 0.5 μM + KNO3 or NaClO4 10 μM, 72 hours
Procedure: The effects of addition of KNO3 and NaClO4 on the anti-HCV activity of N-89 were examined using ORL8 cells.
N-89 and KNO3 or NaClO4 were simultaneously added so that the concentrations of N-89 and KNO3 or NaClO4 were set to 0.5 μM and 10 μM, respectively. The luciferase activity was measured 72 hours after the culture.

[6] = tested on: HCV RNA in OL11 cells (HCV-O strain-derived full-length HCV-genome-replicating cells); assay: Production of cured cells from OL11 cells subcultured for 3 years; assay type: cell-based; settings: treated similarly with N-89
Procedure: as §1, §2

HCV RNA in ORL8 cells = assay: Production of cured cells from ORL8 cells by treatment with N-89; assay type: cell-based, HCV genotype 1b
Procedure: A drug treatment method for the cells was performed according to a method with IFN-γ (1,000 IU/mL) (Abe K et al., Virus Res. 125:88-97, 2007) generally used in the production of cured cells by the inventors of the present invention.
as §1
FIG. 14 show the results. […] The ORL8 cells cultured in the medium in the presence of G418 were all killed, whereas the ORL8 cells cultured in the absence of G418 became confluent at a normal proliferation rate. In order to confirm that HCV RNA was eliminated from the cells, Western blot analysis was performed using an anti-HCV core antibody and an anti-HCV NS5B antibody (FIG. 14c). The ORL8 cells were used as a positive control.

[7] = Cytotoxic effect, WST-1 cell proliferation assay in AH1R cells; assay type: cell-based; settings: human
Excerpt: as §5, §6
The WST-1 cell proliferation assay was performed 72 hours after the culture.

Compound: OCCCCCCC1COOC2(CCCCCCCCCCC2)OOC1 [N-251, 6-(1,2,6,7-tetraoxaspiro[7,11]nonadec-4-yl)]
- EC50 [1]: 59 to 980 nM
- SI (CC50/EC50) [2]: 3.5
- EC50 [2]: 140 nM
- CC50 at 72 h [3]: 3200 nM
- CC50 fold higher in KAH5RL cells than in ORL8 cells (KAH5RL cells): about 2.5 fold
- CC50 (1B-4RL cells): 1900 nM
- inhibition on the renilla luciferase activity (renilla luciferase): did not show any inhibition

Compound: C1CCCCCC2(CCCCC1)OOCCCOO2 [N-89, 1,2,6,7-tetraoxaspiro[7,11]nonadecane]
- EC50 [1]: 25 to 660 nM
- production of cured cells [4]: cured cells were able to be produced
- SI (CC50/EC50) [2]: about 20
- EC50 [2]: 25 nM
- SI (CC50/EC50) ([2]; listed as N89): ~20
- influence of KNO3 or NaClO4 in combination on the anti-HCV activity [5]: no influence
- production of cured cells [6]: cured cells were able to be produced
- HCV core protein and NS5B in treated cells (Western blot) (HCV RNA in ORL8 cells; ORL8 cells treated with N-89 1 μM, added six times, Day 26): none of a core protein and NS5B was detected
- treated cells cultured in medium in the presence of G418 (CBB staining) (HCV RNA in ORL8 cells; ORL8 cells, N-89 1 μM, G418 0.3 mg/mL): all killed
- production of cured cells (HCV RNA in ORL8 cells; ORL8 cells, N-89 1 μM, added six times): cured cells were able to be produced
- CC50 at 72 h [7]: ~500 nM
- inhibition on the renilla luciferase activity (renilla luciferase): did not show any inhibition
